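96-well plates; 48 h exposure; 5 concentrations. Endpoints by linear interpolation between flanking doses. Not reached: highest tested concentration assigned. TGI: concentration producing complete growth inhibition.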
Legend:
Assay in all cases: NCI tumour cell line growth inhibition, 48 h
[1] = system: RXF-631 renal
[2] = system: DLD-1 colon
[3] = system: NCI-H460 lung
[4] = system: SR leukemia
[5] = system: SW-620 colon
[6] = system: DMS 114 small cell lung
[7] = system: A549 NSCLC
[8] = system: SK-OV-3 ovarian
[9] = system: KM20L2 colon
[10] = system: SK-MEL-5 melanoma
[11] = system: M14 melanoma
[12] = system: SF-295 CNS
[13] = system: IGROV1 ovarian
[14] = system: SNB-19 CNS
[15] = system: UACC-62 melanoma
[16] = system: MOLT-4 leukemia
[17] = system: SF-268 CNS
[18] = system: SF-539 CNS
[19] = system: OVCAR-4 ovarian
[20] = system: XF 498 CNS
[21] = system: SK-MEL-28 melanoma
[22] = system: K-562 leukemia
[23] = system: CCRF-CEM leukemia
[24] = system: LOX IMVI melanoma
[25] = system: SN12C renal
[26] = system: 786-0 renal
[27] = system: HT29 colon
[28] = system: COLO 205 colon
[29] = system: OVCAR-5 ovarian
[30] = system: HOP-62 NSCLC
[31] = system: A498 renal
[32] = system: UACC-257 melanoma
[33] = system: NCI-H23 lung
[34] = system: SK-MEL-2 melanoma
[35] = system: OVCAR-8 ovarian
[36] = system: M19-MEL melanoma
[37] = system: HOP-18 NSCLC
[38] = system: MALME-3M melanoma
[39] = system: DMS 273 small cell lung
[40] = system: SNB-78 CNS
[41] = system: HCT-116 colon
[42] = system: NCI-H226 lung
[43] = system: NCI-H522 lung
[44] = system: UO-31 renal
[45] = system: HCC-2998 colon
[46] = system: LXFL 529 NSCLC
[47] = system: U251 CNS
[48] = system: KM12 colon
[49] = system: SNB-75 CNS
[50] = system: RXF 393 renal
[51] = system: EKVX NSCLC
[52] = system: ACHN renal
[53] = system: HL-60(TB) leukemia
[54] = system: HCT-15 colon
[55] = system: TK-10 renal
[56] = system: OVCAR-3 ovarian
[57] = system: CAKI-1 renal
[58] = system: HOP-92 NSCLC
[59] = system: RPMI-8226 leukemia

With `Cc1ccnc(NS(=O)(=O)c2ccc(NC3=CC(=O)C(=O)c4ccccc43)cc2)n1` the TGI [1] was greater than 100 µM, the TGI [2] was greater than 100 µM and the TGI [3] was greater than 100 µM. It also gave a TGI [4] greater than 100 µM, a TGI [5] greater than 100 µM and a TGI [6] greater than 100 µM. The TGI [7] was greater than 100 µM, the TGI [8] was greater than 100 µM and the TGI [9] was greater than 100 µM. It also gave a TGI [10] greater than 100 µM, a TGI [11] greater than 100 µM and a TGI [12] greater than 100 µM. It also gave a TGI [13] greater than 100 µM, a TGI [14] greater than 100 µM and a TGI [15] greater than 100 µM. The TGI [16] was greater than 100 µM, the TGI [17] was greater than 100 µM and the TGI [18] was greater than 100 µM. For the same compound, the TGI [19] was greater than 100 µM, the TGI [20] was greater than 100 µM and the TGI [21] was greater than 100 µM. The TGI [22] was greater than 100 µM, the TGI [23] was greater than 100 µM and the TGI [24] was greater than 100 µM. It also gave a TGI [25] greater than 100 µM, a TGI [26] greater than 100 µM and a TGI [27] greater than 100 µM. The TGI [28] was greater than 100 µM, the TGI [29] was greater than 100 µM and the TGI [30] was greater than 100 µM. For the same compound, the TGI [31] was greater than 100 µM, the TGI [32] was greater than 100 µM and the TGI [33] was greater than 100 µM. It also gave a TGI [34] greater than 100 µM, a TGI [35] greater than 100 µM and a TGI [36] greater than 100 µM. For the same compound, the TGI [37] was greater than 100 µM, the TGI [38] was greater than 100 µM and the TGI [39] was greater than 100 µM. The TGI [40] was greater than 100 µM, the TGI [41] was greater than 100 µM and the TGI [42] was greater than 100 µM. For the same compound, the TGI [43] was greater than 100 µM, the TGI [44] was greater than 100 µM and the TGI [45] was greater than 100 µM. It also gave a TGI [46] greater than 100 µM, a TGI [47] greater than 100 µM and a TGI [48] greater than 100 µM. The TGI [49] was greater than 100 µM, the TGI [50] was greater than 100 µM and the TGI [51] was greater than 100 µM. For the same compound, the TGI [52] was greater than 100 µM, the TGI [53] was greater than 100 µM and the TGI [54] was greater than 100 µM. The TGI [55] was greater than 100 µM, the TGI [56] was greater than 100 µM and the TGI [57] was greater than 100 µM.

With `CCCCCCCCCCCCCCCCP(=O)(OC)OC` the TGI [1] was 31.3 µM, the TGI [2] was 31.4 µM and the TGI [58] was 35.3 µM. For the same compound, the TGI [3] was 31.1 µM, the TGI [4] was 37.9 µM and the TGI [5] was 28.2 µM. The TGI [6] was 30.5 µM, the TGI [7] was 33.4 µM and the TGI [8] was 29 µM. It also gave a TGI [9] of 37.4 µM, a TGI [10] of 30.7 µM and a TGI [11] of 30.2 µM. The TGI [12] was 32.4 µM, the TGI [13] was 34.6 µM and the TGI [14] was 28.6 µM. It also gave a TGI [15] of 27.8 µM, a TGI [16] of 32.3 µM and a TGI [18] of 34.9 µM. The TGI [19] was 35.9 µM, the TGI [20] was 25.8 µM and the TGI [21] was 31.6 µM. It also gave a TGI [22] of 44.8 µM, a TGI [23] of 40.1 µM and a TGI [24] of 31.9 µM. For the same compound, the TGI [25] was 31.3 µM, the TGI [26] was 31.4 µM and the TGI [27] was 31.6 µM. It also gave a TGI [28] of 30.7 µM, a TGI [29] of 27.1 µM and a TGI [30] of 24.3 µM. For the same compound, the TGI [59] was 35 µM, the TGI [32] was 31.8 µM and the TGI [33] was 31.8 µM. For the same compound, the TGI [34] was 30 µM, the TGI [35] was 30.9 µM and the TGI [36] was 30.3 µM. The TGI [37] was 28.6 µM, the TGI [38] was 32.7 µM and the TGI [39] was 27.6 µM. It also gave a TGI [40] of 34.1 µM, a TGI [41] of 33.1 µM and a TGI [42] of 33.2 µM. For the same compound, the TGI [43] was 26.8 µM, the TGI [44] was 24.5 µM and the TGI [45] was 30.8 µM. For the same compound, the TGI [46] was 29.3 µM, the TGI [47] was 32.4 µM and the TGI [48] was 32.2 µM. It also gave a TGI [49] of 32 µM, a TGI [50] of 34.4 µM and a TGI [51] of 30 µM. It also gave a TGI [52] of 28 µM, a TGI [53] of 27.3 µM and a TGI [54] of 30.2 µM. It also gave a TGI [55] of 31 µM, a TGI [56] of 31.9 µM and a TGI [57] of 30.5 µM.
